A value given as a limit tells only on which side of the number the result lay.

By IC50 is commonly meant the concentration at which inhibition is half-maximal.

The target in the assay is T1, human recombinant ROCK II (Homo sapiens, UniProt O75116).
T1 construct: recombinant human ROCK-II residues 11-552; His6 (N); purchased Upstate Ltd., Dundee, UK
T1 sequence (O75116 11-552): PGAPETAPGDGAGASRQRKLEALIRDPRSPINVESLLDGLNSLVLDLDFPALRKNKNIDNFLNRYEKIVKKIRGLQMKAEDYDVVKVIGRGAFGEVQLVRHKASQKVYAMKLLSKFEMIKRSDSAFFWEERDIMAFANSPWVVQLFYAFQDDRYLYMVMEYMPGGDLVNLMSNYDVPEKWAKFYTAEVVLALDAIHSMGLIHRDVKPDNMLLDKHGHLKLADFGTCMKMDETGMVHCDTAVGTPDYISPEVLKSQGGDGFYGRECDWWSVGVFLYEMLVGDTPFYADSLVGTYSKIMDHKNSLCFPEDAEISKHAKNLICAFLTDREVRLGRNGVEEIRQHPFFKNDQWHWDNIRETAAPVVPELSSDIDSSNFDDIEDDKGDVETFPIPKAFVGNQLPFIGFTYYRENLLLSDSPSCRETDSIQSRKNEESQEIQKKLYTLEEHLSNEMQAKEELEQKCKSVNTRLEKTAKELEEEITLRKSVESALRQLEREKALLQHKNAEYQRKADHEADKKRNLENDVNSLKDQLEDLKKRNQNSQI
Description: Determination of Rho Kinase Inhibition (Caliper peptide phosphorylation assay). The following applies: ROCK II residues 11-552, 60 min at 32° C., compound in the form (salt or free base) obtained in the examples. It is filed as biochemical. The protocol: Determination of Rho Kinase Inhibition
To measure Rho-kinase inhibition, IC50 values were determined according to the following protocol:
Active human recombinant ROCK II (N-terminal His6-tagged recombinant human ROCK-II residues 11-552) was purchased from Upstate Ltd., Dundee, UK. The peptide substrate, Fluorescein-AKRRRLSSLRA-COOH, was obtained from JPT Peptide Technologies, Berlin, Germany. Adenosine-5′-triphosphate (ATP), bovine serum albumine (BSA), dimethylsulphoxide (DMSO), 4-(2-Hydroxyethyl)piperazine-1-ethanesulfonic acid (Hepes), Brij-35 and dithiothreitol (DTT) were purchased from Sigma-Aldrich, Munich, Germany. Tris(hydroxymethyl)-aminomethane (Tris), magnesium chloride, NaOH, 1M HCl and EDTA were obtained from Merck Biosciences, Darmstadt, Germany. “Complete” protease inhibitor was from Roche Diagnostics, Mannheim, Germany.
Test compounds were diluted to the appropriate concentrations in buffer 1 (25 mM Tris-HCl, pH 7.4, 5 mM MgCl2, 2 mM DTT, 0.02% (w/v) BSA and 3% DMSO). The ROCK II enzyme was diluted to a concentration of 100 ng/ml in buffer 2 (25 mM Tris-HCl, pH 7.4, 5 mM MgCl2, 2 mM DTT and 0.02% (w/v) BSA). The peptide substrate and ATP were diluted to concentrations of 3 μM and 120 μM, respectively, in the buffer 2. Two μl of the compound solution were mixed with 2 μl of the diluted enzyme in a 384-well small volume microtiter plate (Greiner, Bio-One, Frickenhausen, Germany), and the kinase reaction was initiated by addition of 2 μl of the solution containing peptide substrate and ATP. After 60 min incubation at 32° C., the reaction was stopped by addition of 20 μl of a solution containing 100 mM Hepes-NaOH, pH 7.4, 0.015% (v/v) Brij-35, 45 mM EDTA and 0.227% chip coating reagent 1 (Caliper Lifescience Inc, Hopkinton, Mass.). Phosphorylation of the substrate peptide was then detected on a Caliper 3000 instrument essentially as described by Pommereau et al (J. Biomol. Screening 9 (5), 409-416, 2004). Separation conditions were as follows: Pressure—1.3 psi, upstream voltage—1562 V, downstream voltage—500 V, sample sip time 200 ms. Positive controls (buffer 1 instead of compound) and negative controls (buffer 1 instead of compound and buffer 2 instead of ROCK II) were run in parallel on each plate.
The following products/compounds were tested in said assay by using the respective form (salt or free base) obtained as in the examples described above and the following activities were measured.
As to `Cc1cccc(C2(CN)CCC(Oc3cc4cc[nH]c(=O)c4cc3Cl)CC2)c1` (stereo not drawn) [Compound 111, 6-[4-Aminomethyl-4-(3-methyl-phenyl)-cyclohexyloxy]-7-chloro-2H-isoquinolin-1-one], the IC50 is 1000 to 10000 nM.

As to `COc1ccc(C2(CN)CCC(Oc3cc4cc[nH]c(=O)c4cc3Cl)CC2)cc1OC` (stereo not drawn) [Compound 112, 6-[4-Aminomethyl-4-(3,4-dimethoxy-phenyl)-cyclohexyloxy]-7-chloro-2H-isoquinolin-1-one], the IC50 is at most 1000 nM.

Turning to `COc1ccc(C2(CN)CCC(Oc3cc4cc[nH]c(=O)c4cc3Cl)CC2)cc1` (stereo not drawn) [Compound 114, 6-[4-Aminomethyl-4-(4-methoxy-phenyl)-cyclohexyloxy]-7-chloro-2H-isoquinolin-1-one], the IC50 was at most 1000 nM.

With `NCC1(c2ccccc2)CCC(Oc2cc3cc[nH]c(=O)c3cc2Cl)CC1` (stereo not drawn) [Compound 108, 6-(4-Aminomethyl-4-phenyl-cyclohexyloxy)-7-chloro-2H-isoquinolin-1-one], the IC50 was at most 1000 nM.

Take `C=CCC1(N)CCC(Oc2cc3cc[nH]c(=O)c3cc2Cl)CC1` (mixture of isomers) [Compound 20, 6-(4-Allyl-4-amino-cyclohexyloxy)-7-chloro-2H-isoquinolin-1-one]: the IC50 is at most 1000 nM.

Take `NCC1(c2ccccc2)CCC(Oc2cc3ccncc3cc2Cl)CC1` (stereo not drawn) [Compound 120, C-[4-(7-Chloro-isoquinolin-6-yloxy)-1-phenyl-cyclohexyl]-methylamine]: the IC50 is at most 1000 nM.

As to `NC1(CC(O)CO)CCC(Oc2cc3cc[nH]c(=O)c3cc2Cl)CC1` (mixture of isomers) [Compound 57, 6-[4-amino-4-(2,3-dihydroxy-propyl)-cyclohexyloxy]-7-chloro-2H-isoquinolin-1-one], the IC50 was at most 1000 nM.

Take `NCC1(c2cccc(Cl)c2)CCC(Oc2cc3cc[nH]c(=O)c3cc2Cl)CC1` (stereo not drawn) [Compound 110, 6-[4-Aminomethyl-4-(3-chloro-phenyl)-cyclohexyloxy]-7-chloro-2H-isoquinolin-1-one]: the IC50 was at most 1000 nM.

Take `NCC1(c2ccc(Cl)c(Cl)c2)CCC(Oc2cc3cc[nH]c(=O)c3cc2Cl)CC1` (stereo not drawn) [Compound 116, 6-[4-Aminomethyl-4-(3,4-dichloro-phenyl)-cyclohexyloxy]-7-chloro-2H-isoquinolin-1-one]: the IC50 was at most 1000 nM.

Consider `NCC1(c2ccc(F)cc2)CCC(Oc2cc3cc[nH]c(=O)c3cc2Cl)CC1` (stereo not drawn) [Compound 113, 6-[4-Aminomethyl-4-(4-fluoro-phenyl)-cyclohexyloxy]-7-chloro-2H-isoquinolin-1-one], for which the IC50 is at most 1000 nM.

For the compound `NCC1(c2ccc(Cl)cc2)CCC(Oc2cc3cc[nH]c(=O)c3cc2Cl)CC1` (stereo not drawn) [Compound 109, 6-[4-Aminomethyl-4-(4-chloro-phenyl)-cyclohexyloxy]-7-chloro-2H-isoquinolin-1-one], the half-maximal inhibitory concentration (IC50) was at most 1000 nM.

In the case of `N[C@]1(C2CC2)CC[C@H](Oc2cc3cc[nH]c(=O)c3cc2Cl)CC1` [Compound 41, 6-(cis-4-Amino-4-cyclopropyl-cyclohexyloxy)-7-chloro-2H-isoquinolin-1-one], the IC50 is at most 1000 nM.
